The source of these data is ChEMBL document CHEMBL5344441, “Discovery and Preclinical Pharmacology of NX-2127, an Orally Bioavailable Degrader of Bruton's Tyrosine Kinase with Immunomodulatory Activity for the Treatment of Patients with B Cell Malignancies” (J Med Chem, 2024).

Converted amounts (≈) assume the structure as drawn. The source made the active and inactive calls. The calls are words filed in the database; no cut-off is given here.

Data set [1] addresses T1, Protein cereblon/Tyrosine-protein kinase BTK (Homo sapiens, UniProt Q06187+Q96SW2). Briefly: PROTAC activity at CRBN/BTK in human TMD8 cells assessed as degradation of BTK protein incubated for 4 hrs by HTRF assay. The class given is cell-based. On the technique in general: In TR-FRET formats the signal depends on donor and acceptor labels being close together.
Target sequence in this assay (Q06187 whole entry): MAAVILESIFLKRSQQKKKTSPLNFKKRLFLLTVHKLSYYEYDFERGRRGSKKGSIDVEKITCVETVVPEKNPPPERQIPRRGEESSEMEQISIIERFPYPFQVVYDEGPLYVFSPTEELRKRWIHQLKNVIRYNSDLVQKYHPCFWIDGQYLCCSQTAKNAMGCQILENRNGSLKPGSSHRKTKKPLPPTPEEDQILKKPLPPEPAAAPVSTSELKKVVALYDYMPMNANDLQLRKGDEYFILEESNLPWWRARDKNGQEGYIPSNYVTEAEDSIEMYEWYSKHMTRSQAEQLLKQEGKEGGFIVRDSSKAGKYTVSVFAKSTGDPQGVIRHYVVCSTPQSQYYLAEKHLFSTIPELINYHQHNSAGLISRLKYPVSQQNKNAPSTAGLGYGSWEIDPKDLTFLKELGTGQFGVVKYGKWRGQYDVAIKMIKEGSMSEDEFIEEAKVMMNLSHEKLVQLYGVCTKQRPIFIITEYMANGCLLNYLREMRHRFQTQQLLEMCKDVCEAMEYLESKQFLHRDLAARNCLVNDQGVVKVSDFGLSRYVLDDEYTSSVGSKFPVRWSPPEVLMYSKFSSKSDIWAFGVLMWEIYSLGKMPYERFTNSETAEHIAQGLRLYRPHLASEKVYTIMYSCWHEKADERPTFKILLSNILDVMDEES
Target sequence in this assay (Q96SW2 whole entry): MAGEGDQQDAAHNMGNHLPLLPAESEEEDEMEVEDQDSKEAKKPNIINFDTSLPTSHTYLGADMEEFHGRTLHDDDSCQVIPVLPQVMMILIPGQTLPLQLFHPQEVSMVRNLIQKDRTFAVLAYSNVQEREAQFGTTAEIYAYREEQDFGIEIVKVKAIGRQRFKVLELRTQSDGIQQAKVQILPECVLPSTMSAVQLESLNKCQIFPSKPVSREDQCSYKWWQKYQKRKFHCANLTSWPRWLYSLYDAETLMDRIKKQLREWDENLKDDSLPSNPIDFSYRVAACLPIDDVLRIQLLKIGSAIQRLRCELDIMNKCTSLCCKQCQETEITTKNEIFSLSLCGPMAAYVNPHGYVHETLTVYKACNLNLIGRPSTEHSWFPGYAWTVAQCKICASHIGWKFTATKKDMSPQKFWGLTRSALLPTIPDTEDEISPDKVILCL
The target in data set [2] is T1, Protein cereblon/Tyrosine-protein kinase BTK. Briefly: PROTAC activity at CRBN/BTK in human Ramos cells assessed as maximal degradation of BTK protein incubated for 4 hrs by HTRF assay relative to control. The class given is cell-based.
Target sequence in this assay (Q06187 2-659 limits assumed): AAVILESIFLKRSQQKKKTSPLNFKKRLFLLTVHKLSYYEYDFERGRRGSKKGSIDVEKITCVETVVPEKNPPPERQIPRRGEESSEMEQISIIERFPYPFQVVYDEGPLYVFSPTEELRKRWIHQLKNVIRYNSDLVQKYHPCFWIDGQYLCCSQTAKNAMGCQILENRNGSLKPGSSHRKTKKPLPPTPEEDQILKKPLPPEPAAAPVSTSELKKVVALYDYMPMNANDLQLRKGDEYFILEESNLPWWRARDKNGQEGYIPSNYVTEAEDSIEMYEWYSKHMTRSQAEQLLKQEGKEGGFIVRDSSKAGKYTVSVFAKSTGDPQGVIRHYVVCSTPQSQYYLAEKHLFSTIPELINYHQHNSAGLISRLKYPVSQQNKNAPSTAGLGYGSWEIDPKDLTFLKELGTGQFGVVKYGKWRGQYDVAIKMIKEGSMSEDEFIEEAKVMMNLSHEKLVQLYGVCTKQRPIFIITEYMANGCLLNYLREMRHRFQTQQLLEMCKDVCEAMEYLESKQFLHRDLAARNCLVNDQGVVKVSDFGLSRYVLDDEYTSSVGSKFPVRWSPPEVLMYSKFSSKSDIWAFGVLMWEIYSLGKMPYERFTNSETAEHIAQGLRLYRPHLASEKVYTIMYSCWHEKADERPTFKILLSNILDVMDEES
Target sequence in this assay (Q96SW2 whole entry partner): as the sequence (Q96SW2 whole entry) above
Data set [3] shares this target. The experiment in a line: PROTAC activity at CRBN/BTK in human TMD8 cells assessed as maximal degradation of BTK protein incubated for 4 hrs by HTRF assay relative to control. It counts as cell-based.
Target sequence in this assay (Q06187 2-659 limits assumed): as the sequence (Q06187 2-659 limits assumed) above
Target sequence in this assay (Q96SW2 whole entry partner): as the sequence (Q96SW2 whole entry) above
Data set [4] concerns the target T2, Protein cereblon/Tyrosine-protein kinase BTK (Mus musculus) (UniProt P35991+Q8C7D2). Briefly: In vivo protac activity at CRBN/BTK in BALB/c mouse assessed as remaining BTK protein in splenocyte at 3 mg/kg,po administration measured after 6 hrs by HTRF assay relative to control. It counts as functional, organism-based.
In data set [5] the target is T1, Protein cereblon/Tyrosine-protein kinase BTK. The experiment in a line: PROTAC activity at CRBN/BTK in human Ramos cells assessed as degradation of BTK protein incubated for 4 hrs by HTRF assay. It counts as cell-based.
Target sequence in this assay (Q06187 whole entry): as the sequence (Q06187 whole entry) above
Target sequence in this assay (Q96SW2 whole entry): as the sequence (Q96SW2 whole entry) above
Data set [6] concerns TMD8. Briefly: Antitumor activity against human TMD8 cells expressing BTK C481S mutant xenografted in CB17-SCID mouse assessed as tumor growth inhibition at 30 mg/kg,po administration for 25 days. It counts as functional. The note with it: time 25.0 day. (In xenograft studies the graft and the host belong to different species.)
The subject of data set [7] is TMD8. The experiment in a line: Antitumor activity against human TMD8 cells expressing wild type BTK xenografted in CB17-SCID mouse assessed as tumor growth inhibition at 30 mg/kg,po administration for 25 days. It counts as functional. The settings on record: TMD8, 600 h, time 25 day, read-out: TGI.
A short description of data set [8]: Ratio of drug concentration in human blood to plasma. The class given is ADME, cell-free. The note with it: whole blood.
Data set [9] can be described thus: Ratio of drug concentration in mouse blood to plasma. It counts as ADME, cell-free. The note with it: whole blood.
Data set [10] can be described thus: Lipophilicity, logD of compound at pH 7.4. The note with it: buffer. The class given is physicochemical.
A short description of data set [11]: Plasma protein binding in human. The note with it: read-out: PPB (converted). It counts as ADME, cell-free.
A short description of data set [12]: Plasma protein binding in rat. The settings on record: read-out: PPB. It counts as ADME, cell-free.
Data set [13] is described as follows: Ratio of drug concentration in dog blood to plasma. The class given is ADME, cell-free, Canis lupus familiaris. The settings on record: whole blood.
A short description of data set [14]: AUC in mouse at 10 mg/kg,po. The class given is ADME, organism-based. Further details: dose 10 mg/kg, route po. The note with it: in vivo.
Data set [15] concerns the target T2, Protein cereblon/Tyrosine-protein kinase BTK (Mus musculus). Briefly: In vivo protac activity at CRBN/BTK in BALB/c mouse assessed as remaining BTK protein in blood at 3 mg/kg,po administration measured after 6 hrs by flow cytomtery relative to control. It counts as functional, organism-based.
For the next data set, the target named is Cereblon/Ikaros (Homo sapiens, UniProt Q96SW2+Q13422). Briefly: PROTAC activity at CRBN/IKZF1 in human T cell assessed as degradation of IKZF1 protein incubated for 24 hrs by flow cytometry. The class given is cell-based.
Cereblon/Ikaros, sequence (Q96SW2 whole entry): as above
Cereblon/Ikaros, sequence (Q13422 whole entry): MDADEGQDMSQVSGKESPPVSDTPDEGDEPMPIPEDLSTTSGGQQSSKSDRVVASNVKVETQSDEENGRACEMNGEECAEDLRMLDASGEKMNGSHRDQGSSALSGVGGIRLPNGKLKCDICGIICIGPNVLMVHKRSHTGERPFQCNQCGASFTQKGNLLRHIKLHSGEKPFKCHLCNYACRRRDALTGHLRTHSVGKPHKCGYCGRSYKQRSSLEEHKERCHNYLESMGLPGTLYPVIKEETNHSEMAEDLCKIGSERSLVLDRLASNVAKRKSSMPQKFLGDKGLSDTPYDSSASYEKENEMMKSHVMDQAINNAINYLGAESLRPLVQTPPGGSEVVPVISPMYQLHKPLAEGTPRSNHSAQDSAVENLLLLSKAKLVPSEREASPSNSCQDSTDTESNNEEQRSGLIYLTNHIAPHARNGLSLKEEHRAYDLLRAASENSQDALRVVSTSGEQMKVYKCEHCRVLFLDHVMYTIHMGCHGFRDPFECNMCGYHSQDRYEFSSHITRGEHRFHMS
Data set [16] deals with Protein cereblon/Zinc finger protein Aiolos (Homo sapiens, UniProt Q96SW2+Q9UKT9). Briefly: PROTAC activity at CRBN/IKZF3 in human T cell assessed as maximal degradation of IKZF3 protein incubated for 24 hrs by flow cytometry relative to control. It counts as cell-based.
Protein cereblon/Zinc finger protein Aiolos, sequence (Q96SW2 whole entry, looked up): as the sequence (Q96SW2 whole entry) above
Protein cereblon/Zinc finger protein Aiolos, sequence (Q9UKT9 whole entry, looked up): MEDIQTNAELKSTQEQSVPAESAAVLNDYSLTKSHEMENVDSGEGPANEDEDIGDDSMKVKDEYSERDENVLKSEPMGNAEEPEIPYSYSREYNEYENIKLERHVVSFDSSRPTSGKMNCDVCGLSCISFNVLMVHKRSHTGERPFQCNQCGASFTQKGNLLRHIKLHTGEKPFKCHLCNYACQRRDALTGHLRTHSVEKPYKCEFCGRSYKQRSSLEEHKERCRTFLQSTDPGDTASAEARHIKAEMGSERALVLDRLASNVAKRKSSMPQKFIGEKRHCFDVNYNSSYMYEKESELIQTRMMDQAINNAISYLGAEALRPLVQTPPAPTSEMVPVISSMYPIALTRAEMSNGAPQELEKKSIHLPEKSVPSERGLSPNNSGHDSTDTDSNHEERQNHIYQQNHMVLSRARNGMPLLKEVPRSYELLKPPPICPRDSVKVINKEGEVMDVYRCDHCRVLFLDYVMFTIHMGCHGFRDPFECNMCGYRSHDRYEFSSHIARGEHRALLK
The subject of data set [17] is Protein cereblon/Tyrosine-protein kinase BTK (Homo sapiens), Q06187+Q96SW2 [C481S]. Briefly: PROTAC activity at CRBN/BTK C481S mutant in human TMD8 cells assessed as maximal degradation of BTK protein incubated for 4 hrs by HTRF assay relative to control. It counts as cell-based.
Data set [18] in a line: Apparent permeability across apical to basolateral side in human Caco-2 cells. It counts as ADME, cell-based. For orientation: Caco-2 monolayers are a common model of the intestinal barrier.
Data set [19] in a line: Plasma protein binding in cynomolgus monkey. The class given is ADME, cell-free, Macaca fascicularis. The note with it: read-out: PPB (converted).
Data set [20] deals with Protein cereblon/Tyrosine-protein kinase BTK (Homo sapiens, UniProt Q06187+Q96SW2, C481S). Briefly: PROTAC activity at CRBN/BTK C481S mutant in human TMD8 cells assessed as degradation of BTK protein incubated for 4 hrs by HTRF assay. It counts as cell-based.
Protein cereblon/Tyrosine-protein kinase BTK (Homo sapiens, UniProt Q06187+Q96SW2, C481S), sequence (Q06187 2-659 C481S limits assumed, stated change not applied): as the sequence (Q06187 2-659 limits assumed) above, with C480S counted along it
Protein cereblon/Tyrosine-protein kinase BTK (Homo sapiens, UniProt Q06187+Q96SW2, C481S), sequence (Q96SW2 whole entry, stated change not applied): as the sequence (Q96SW2 whole entry) above
Data set [21] in a line: Aqueous solubility of the compound in PBS at pH 7.4. It counts as physicochemical.
Data set [22] can be described thus: Ratio of drug concentration in rat blood to plasma. The class given is ADME, cell-free. The settings on record: whole blood.
Data set [23] can be described thus: Ratio of drug concentration in cynomolgus monkey blood to plasma. It counts as ADME, cell-free, Macaca fascicularis. The settings on record: whole blood.
The nature of data set [24]: Plasma protein binding in dog. The class given is ADME, cell-free, Canis lupus familiaris. The note with it: read-out: PPB (converted).
Data set [25] in a line: Oral bioavailability in mouse at 10 mg/kg. The class given is ADME, organism-based. The note with it: in vivo.
Data set [26] in a line: Efflux ratio of apparent permeability in human Caco-2 cells. The class given is ADME, cell-based.
Data set [27] can be described thus: Observed clearance in mouse at 1 mg/kg,iv. The settings on record: in vivo. The class given is ADME, organism-based.
Data set [28] can be described thus: Plasma protein binding in mouse. The class given is ADME, cell-free. The settings on record: read-out: PPB.

T2 sequence (P35991 whole entry, looked up): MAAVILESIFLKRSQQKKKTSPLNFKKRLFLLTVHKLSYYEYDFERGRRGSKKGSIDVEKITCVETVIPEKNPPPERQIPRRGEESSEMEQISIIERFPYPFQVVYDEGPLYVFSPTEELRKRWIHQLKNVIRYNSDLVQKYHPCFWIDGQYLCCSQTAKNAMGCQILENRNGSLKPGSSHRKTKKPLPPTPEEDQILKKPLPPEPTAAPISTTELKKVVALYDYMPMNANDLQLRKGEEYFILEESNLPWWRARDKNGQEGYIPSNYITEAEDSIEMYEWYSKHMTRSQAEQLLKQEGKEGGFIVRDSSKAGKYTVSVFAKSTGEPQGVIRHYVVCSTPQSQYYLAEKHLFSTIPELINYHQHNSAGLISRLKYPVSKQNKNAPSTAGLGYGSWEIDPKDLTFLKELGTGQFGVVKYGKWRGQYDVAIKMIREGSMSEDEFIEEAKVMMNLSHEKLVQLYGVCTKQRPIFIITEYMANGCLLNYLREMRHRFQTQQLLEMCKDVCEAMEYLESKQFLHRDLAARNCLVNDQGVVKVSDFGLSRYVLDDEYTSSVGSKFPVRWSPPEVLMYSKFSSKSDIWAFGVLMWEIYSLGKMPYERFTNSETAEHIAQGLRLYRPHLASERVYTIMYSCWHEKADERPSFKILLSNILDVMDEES
T2 sequence (Q8C7D2 whole entry, looked up): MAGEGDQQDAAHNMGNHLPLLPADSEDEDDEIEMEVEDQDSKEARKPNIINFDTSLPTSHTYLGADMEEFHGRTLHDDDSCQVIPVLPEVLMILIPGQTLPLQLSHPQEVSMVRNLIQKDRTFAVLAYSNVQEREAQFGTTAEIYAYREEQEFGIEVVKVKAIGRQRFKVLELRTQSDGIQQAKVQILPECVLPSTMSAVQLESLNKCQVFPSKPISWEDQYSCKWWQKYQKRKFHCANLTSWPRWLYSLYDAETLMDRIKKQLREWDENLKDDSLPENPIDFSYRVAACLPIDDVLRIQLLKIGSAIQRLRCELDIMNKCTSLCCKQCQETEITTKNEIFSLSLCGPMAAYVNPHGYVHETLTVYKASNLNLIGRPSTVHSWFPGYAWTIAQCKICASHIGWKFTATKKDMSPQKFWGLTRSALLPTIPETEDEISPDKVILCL

With `CN1CCN([C@@H]2CCCN(c3cnc(C(N)=O)c(Nc4ccc(N5CCC6(CC5)CCN(c5ccc7c(c5)C(=O)N(C5CCC(=O)NC5=O)C7=O)CC6)cc4)n3)C2)C1=O` (some centres undefined), the DC50 (commonly the concentration at which degradation of the target reaches its halfway point) in [1] is 1.3 nM; in data set [5] it was 0.9 nM. The Emax in data set [2] and in [3] was 96% in each case. The Activity in data set [4] was 18%.
For the compound `C=CC(=O)N1CCC[C@@H](n2nc(-c3ccc(Oc4ccccc4)cc3)c3c(N)ncnc32)C1` [IBRUTINIB], in the data set with TMD8 [6], the outcome was inactive. For the same compound, the inhibition in vivo at 30 mg/kg in the data set on TMD8 [7] was determined as 55%.
As for `CN1CCN([C@@H]2CCCN(c3cnc(C(N)=O)c(Nc4ccc(C5CCN(C[C@H]6CCN(c7ccc8c(c7)C(=O)N(C7CCC(=O)NC7=O)C8=O)C6)CC5)cc4)n3)C2)C1=O` (some centres undefined), the blood plasma ratio in [8] amounted to 0.3; in data set [9], 1.1; in data set [13] it was 6; in data set [22] it was 1.3; in data set [23], 11. In data set [10], the logD (in general, lipophilicity at a set pH, counting ionised and neutral species) was determined as 3.7. For the same compound, the fraction unbound in data set [11] was 0.066; in [12], under 0.015; in [19], 0.025; in [24] it was 0.031; in [28], under 0.015. Moreover, in data set [14], the area under the curve (AUC) – broadly, concentration integrated over time – came out at 3.6 µM·h. Also, the Activity in data set [15] amounted to 50%; in data set [4] it was 32%. The 50% degradation concentration (DC50) at Cereblon/Ikaros came out at 57 nM; in data set [20], 1.5 nM; in data set [1], 0.35 nM; in data set [5], 0.5 nM. Moreover, the Emax (in general, the maximal effect, on the per cent scale that the assay sets) in data set [16] was determined as 79%; in data set [17], 94.8%; in data set [2] it was 97%; in [3], 97%. The apical-to-basolateral permeability (Papp A→B) – broadly, how fast a substance crosses the layer from the apical side – in data set [18] was under 0.01 ×10⁻⁶ cm/s. Moreover, the solubility (usually the concentration that dissolves in the medium under given conditions) in data set [21] worked out at 0.3 µM (≈ 0.245 µg/mL). Further, the bioavailability (as a rule, dose-corrected exposure relative to a reference, in per cent) in data set [25] was found to be 5.4%. For the same compound, the efflux ratio – broadly, the permeability from basolateral to apical divided by that in the opposite direction, in the common usage – in data set [26] was over 84. The clearance (usually the volume of plasma or blood freed of the substance per unit of time) in [27] was found to be 3 mL/min/kg.
